From ChEMBL document CHEMBL1121986, “Spiro oxazolidinedione aldose reductase inhibitors” (J Med Chem, 1982) come the findings set out here.

Experiment [1] deals with Rattus norvegicus. Put plainly: Dose required for reduction of sorbitol accumulation in the sciatic nerve in streptozotocin-diabetic rats in vivo; Inactive. The experiment is classed as functional, organism-based.
Experiment [2] deals with T1, Aldo-keto reductase family 1 member B1 (Bos taurus, UniProt P16116). Put plainly: Inhibitory concentration was determined against partially purified calf lens aldose reductase using glyceraldehyde as a substrate.
The test system of experiment [3] is Rattus norvegicus. The experiment can be described thus: Dose required for reduction of sorbitol accumulation in the sciatic nerve in streptozotocin-diabetic rats in vivo. The experiment is classed as functional.
For experiment [4], the target named is T1, Aldo-keto reductase family 1 member B1. Put plainly: Inhibitory concentration was determined against partially purified calf lens aldose reductase using glyceraldehyde as a substrate; 10e-6/10e-7.
The target is the same in experiment [5]. Put plainly: Inhibitory concentration was determined against partially purified calf lens aldose reductase using glyceraldehyde as a substrate; 10e-4/10e-5.
The target is the same in experiment [6]. Put plainly: Inhibitory concentration was determined against partially purified calf lens aldose reductase using glyceraldehyde as a substrate; 10e-7/10e-8.
Where [7] appears, read: Rattus norvegicus, Sciatic nerve, read-out: ED50.

Structures are written as SMILES. The source made the active and inactive calls. The calls are words filed in the database; no cut-off is given here.

By ED50 is commonly meant the dose that gives a 50% effect, or the effect in half of the subjects. Broadly, the IC50 is the concentration that gives 50% inhibition. Low values mean greater potency in that assay, high ones weaker potency in that assay. Turning to `O=C1NC(=O)C2(CCCc3ccccc32)O1` (stereo not given), the ED50 result in experiment [1] is “inactive”. The molecule also registered an IC50 in experiment [2] of 100 µM.

As for `O=C1N=C(O)OC12CCOc1c(Cl)cc(Cl)cc12` (single isomer, unassigned; (+)), in experiment [2], inhibition was half-maximal at 100 µM (IC50). As for `Cc1cc(Cl)cc2c1OCCC21OC(=O)NC1=O` (stereo not given), the ED50 in experiment [3] (setting [7]) was greater than 1.5 mg/kg. Moreover, in experiment [4], the concentration for half-maximal inhibition (IC50) worked out at 10 µM. As to `O=C1N=C(O)OC12CCOc1ccc(Cl)cc12` (single isomer, unassigned; (+)), the IC50 in experiment [5] is 1000 µM. As for `O=C1NC(=O)C2(CCSc3ccc(F)cc32)O1` (stereo not given), the ED50 in experiment [3] (setting [7]) amounted to 25 mg/kg. This molecule also showed an IC50 in experiment [2] of 10 µM.

Turning to `O=C1NC(=O)C2(CCOc3c(Cl)cc(Cl)cc32)O1` (stereo in doubt; 14), in experiment [3] (setting [7]), the 50% effective dose (ED50) was greater than 1.5 mg/kg. This molecule also gave a half-inhibitory concentration (IC50) in experiment [6] of 1 µM. Regarding `O=C1NC(=O)C2(CCOc3ccc(Cl)cc32)O1` (stereo not given), in experiment [3] (setting [7]), the ED50 was greater than 1.5 mg/kg. The same molecule came in with an IC50 in experiment [4] of 10 µM. Regarding `O=C1NC(=O)C2(CCOc3ccc(F)cc32)O1` (stereo not given), in experiment [3] (setting [7]), the median effective dose (ED50) was greater than 1.5 mg/kg. For the same molecule, the IC50 in experiment [4] worked out at 10 µM. Consider `O=C1NC(=O)C2(CCSc3ccc(Cl)cc32)O1` (stereo not given), for which, in experiment [3] (setting [7]), the ED50 is greater than 1.5 mg/kg. This molecule also registered a half-inhibitory concentration (IC50) in experiment [4] of 10 µM. `O=C1NC(=O)C2(CCOc3c(Cl)cc(Cl)cc32)O1` (stereo in doubt; 23) had an ED50 in experiment [3] of 1.5 mg/kg. For the molecule `O=C1NC(=O)C2(CCSc3ccccc32)O1` (stereo not given), in experiment [3] (setting [7]), the 50% effective dose (ED50) stood at 25 mg/kg. For the same molecule, the concentration for half-maximal inhibition (IC50) in experiment [2] stood at 10 µM. The molecule `O=C1N=C(O)OC12CCOc1ccc(Cl)cc12` (single isomer, unassigned; (-)) came in with an IC50 in experiment [2] of 1 µM. The same measure, in the same setting: the result for `O=C1NC(=O)C2(CCOc3ccccc32)O1` (stereo not given) reads 100 µM. Take `O=C1NC(=O)C2(CCc3ccccc32)O1` (stereo not given): the ED50 in experiment [3] (setting [7]) was greater than 25 mg/kg. This molecule gave an IC50 in experiment [2] of 100 µM.

Take `O=C1NC(=O)C2(CCOc3ccc(Br)cc32)O1` (stereo not given): the ED50 in experiment [3] (setting [7]) was greater than 1.5 mg/kg. This molecule displayed a half-maximal inhibitory concentration (IC50) in experiment [2] of 1 µM.
